Source: US7629340B2, “N-(6-membered aromatic ring)-amido anti-viral compounds” (SmithKline Beecham Corporation, priority 2005, dated 2009)

Assay: Replicon Assay (luciferase, ET cell line)
Assay type: cell-based, HCV
Conditions: Hepatitis C virus; % inhibition of replication relative to no compound control, test concentration of 10 μM; ET cells, luciferase read 48-72 hours; read-out: % inhib at 10 uM
Experimental: A cell line, ET (Huh-lucubineo-ET) was used for screening of compounds of the present invention for HCV RNA dependent RNA polymerase. The ET cell line was stably transfected with RNA transcripts harboring a I389luc-ubi-neo/NS3-3′/ET; replicon with firefly luciferase-ubiquitin-neomycin phosphotransferase fusion protein and EMCV-IRES driven NS3-5B polyprotein containing the cell culture adaptive mutations (E1202G; T1280I; K1846T) (Krieger at al, 2001 and unpublished). The ET cells were grown in DMEM, supplemented with 10% fetal calf serum, 2 mM Glutamine, Penicillin (100 IU/mL)/Stretomycin (100 μg/mL), 1× nonessential amino acids, and 250 μg/mL G418 (“Geneticin”). They were all available through Life Technologies (Bethesda, Md.). The cells were plated at 0.5−1.0×10^4 cells/well in the 96 well plates and incubated for 24 hrs before adding nucleoside analogs. […] Luciferase activity were measured 48-72 hours later by adding a lysis buffer and the substrate (Catalog number Glo-lysis buffer E2661 and Bright-Glo luciferase system E2620 Promega, Madison, Wis.). Cells should not be too confluent during the assay. Percent inhibition of replication was plotted relative to no compound control. Under the same condition, cytotoxicity of the compounds was determined using cell proliferation reagent, WST-1 (Roche, Germany). The compounds showing antiviral activities, but no significant cytotoxicities were chosen to determine IC50 and TC50. For these determinations, 10 concentration of each compound were used. Concentrations for test compounds typically span a range of 500 fold. IC50 and TC50 values were calculated by fitting % inhibition at each concentration (I) to the following equation: % inhibition=100%/[1+10^(log IC50−log(I))*b] where b is Hill's coefficient.

Compound	inhibition at 10 µM [%]
O=C(Nc1cc(Oc2ccc3oc4c(c3c2)CCCC4)cc([N+](=O)[O-])c1)[C@@H]1CCCN1C(=O)OCc1ccccc1 [Compound 6032, 2-[3-Nitro-5-(6,7,8,9-tetrahydro-dibenzofuran-2-yloxy)-phenylcarbamoyl]-pyrrolidine-1-carboxylic acid benzyl ester]	44.5
O=C(Nc1cccc(Oc2ccccc2)c1)[C@@H]1CCCN1C(=O)OCc1ccccc1 [Compound 6034, 2-(3-Phenoxy-phenylcarbamoyl)-pyrrolidine-1-carboxylic acid benzyl ester]	26.7
O=C(Nc1ccc(-c2ccccc2)cc1)[C@@H]1CCCN1C(=O)OCc1ccccc1 [Compound 6035, 2-(Biphenyl-4-ylcarbamoyl)-pyrrolidine-1-carboxylic acid benzyl ester]	42.5
COc1cccc(OC)c1-c1ccc(NC(=O)[C@@H]2CCCN2C(=O)OCc2ccccc2)cc1 [Compound 6036, 2-(2′,6′-Dimethoxy-biphenyl-4-ylcarbamoyl)-pyrrolidine-1-carboxylic acid benzyl ester]	22.9
COc1ccc(-c2cccc(NC(=O)[C@@H]3CCCN3C(=O)OCc3ccccc3)c2)cc1 [Compound 6037, 2-(4′-Methoxybiphenyl-3-yl-carbamoyl)-pyrrolidine-1-carboxylic acid benzyl ester]	8.6
O=C(Nc1cccc(-c2ccc3c(c2)OCO3)c1)[C@@H]1CCCN1C(=O)OCc1ccccc1 [Compound 6043, 2-(3-Benzo[1,3]dioxol-5-yl-phenylcarbamoyl)-pyrrolidine-1-carboxylic acid benzyl ester]	93.9
O=C(Nc1cccc(-c2ccc3ccccc3c2)c1)[C@@H]1CCCN1C(=O)OCc1ccccc1 [Compound 6044, 2-(3-Naphthalen-2-yl-phenylcarbamoyl)-pyrrolidine-1-carboxylic acid benzyl ester]	73.2
CN(C)c1ccc(-c2cccc(NC(=O)[C@@H]3CCCN3C(=O)OCc3ccccc3)c2)cc1 [Compound 6045, 2-(4′-Dimethylamino-biphenyl-3-ylcarbamoyl)-pyrrolidine-1-carboxylic acid benzyl ester]	15.7
O=C(Nc1cccc(Br)c1)[C@@H]1CCCN1C(=O)OCc1ccccc1 [Compound 6047, 2-(3-Bromo-phenylcarbamoyl)-pyrrolidine-1-carboxylic acid benzyl ester]	1.38
CC(=O)c1ccc(-c2cccc(NC(=O)[C@@H]3CCCN3C(=O)OCc3ccccc3)c2)s1 [Compound 6048, 2-[3-(5-Acetyl-thiophen-2-yl)-phenylcarbamoyl]-pyrrolidine-1-carboxylic acid benzyl ester]	36.9
Cn1ccc2cc(-c3cccc(NC(=O)[C@@H]4CCCN4C(=O)OCc4ccccc4)c3)ccc21 [Compound 6051, 2-[3-(1-Methyl-1H-indol-5-yl)-phenylcarbamoyl]-pyrrolidine-1-carboxylic acid benzyl ester]	68.8
CC(=O)c1ccc(-c2cccc(NC(=O)[C@@H]3CCCN3C(=O)OCc3ccccc3)c2)cc1 [Compound 6052, 2-(4′-Acetyl-biphenyl-3-ylcarbamoyl)-pyrrolidine-1-carboxylic acid benzyl ester]	48.3
O=C(Nc1cccc(-c2ccc([N+](=O)[O-])cc2)c1)[C@@H]1CCCN1C(=O)OCc1ccccc1 [Compound 6053, 2-(4′-Nitro-biphenyl-3-ylcarbamoyl)-pyrrolidine-1-carboxylic acid benzyl ester]	93.3
Nc1cccc(-c2cccc(NC(=O)[C@@H]3CCCN3C(=O)OCc3ccccc3)c2)c1 [Compound 6054, 2-(3′-Amino-biphenyl-3-ylcarbamoyl)-pyrrolidine-1-carboxylic acid benzyl ester]	97.7
O=C(O)/C=C/c1ccc(-c2cccc(NC(=O)[C@@H]3CCCN3C(=O)OCc3ccccc3)c2)cc1 [Compound 6055, 2-[4′-(2-Carboxy-vinyl)-biphenyl-3-ylcarbamoyl]-pyrrolidine-1-carboxylic acid benzyl ester]	40.9
CC(=O)Nc1ccc(-c2cccc(NC(=O)[C@@H]3CCCN3C(=O)OCc3ccccc3)c2)cc1 [Compound 6056, 2-(4′-Acetylamino-biphenyl-3-ylcarbamoyl)-pyrrolidine-1-carboxylic acid benzyl ester]	80.8

Compound	inhibition at 10 µM [%]
CC(=O)Nc1cccc(-c2cccc(NC(=O)[C@@H]3CCCN3C(=O)OCc3ccccc3)c2)c1 [Compound 6057, 2-(3′-Acetylamino-biphenyl-3-ylcarbamoyl)-pyrrolidine-1-carboxylic acid benzyl ester]	61.7
O=C(Nc1cccc(-c2cccc3[nH]ccc23)c1)[C@@H]1CCCN1C(=O)OCc1ccccc1 [Compound 6082, 2-[3-(1H-Indol-4-yl)-phenylcarbamoyl]-pyrrolidine-1-carboxylic acid benzyl ester]	97.4
O=C1Cc2cc(-c3cccc(NC(=O)[C@@H]4CCCN4C(=O)OCc4ccccc4)c3)ccc2N1 [Compound 6083, 2-[3-(2-Oxo-2,3-dihydro-1H-indol-5-yl)-phenylcarbamoyl]-pyrrolidine-1-carboxylic acid benzyl ester]	93.8
O=C1Nc2ccc(-c3cccc(NC(=O)[C@@H]4CCCN4C(=O)OCc4ccccc4)c3)cc2C1=O [Compound 6084, 2-[3-(2,3-Dioxo-2,3-dihydro-1H-indol-5-yl)-phenylcarbamoyl]-pyrrolidine-1-carboxylic acid benzyl ester]	3.35
Cc1ccc2cc(-c3cccc(NC(=O)[C@@H]4CCCN4C(=O)OCc4ccccc4)c3)ccc2n1 [Compound 6085, 2-[3-(2-Methyl-quinolin-6-yl)-phenylcarbamoyl]-pyrrolidine-1-carboxylic acid benzyl ester]	39.7
Nc1ccc(-c2cccc(NC(=O)[C@@H]3CCCN3C(=O)OCc3ccccc3)c2)cc1 [Compound 6086, 2-(4′-Amino-biphenyl-3-ylcarbamoyl)-pyrrolidine-1-carboxylic acid benzyl ester]	89.9
CC(=O)c1cccc(-c2cccc(NC(=O)[C@@H]3CCCN3C(=O)OCc3ccccc3)c2)c1 [Compound 6087, 2-(3′-Acetyl-biphenyl-3-ylcarbamoyl)-pyrrolidine-1-carboxylic acid benzyl ester]	78.9
O=C(Nc1cccc(-c2ccc3cc(O)ccc3c2)c1)[C@@H]1CCCN1C(=O)OCc1ccccc1 [Compound 6088, 2-[3-(6-Hydroxy-naphthalen-2-yl)-phenylcarbamoyl]-pyrrolidine-1-carboxylic acid benzyl ester]	99.9
CNc1cccc(-c2cccc(NC(=O)[C@@H]3CCCN3C(=O)OCc3ccccc3)c2)c1 [Compound 6089, 2-(3′-Methylamino-biphenyl-3-ylcarbamoyl)-pyrrolidine-1-carboxylic acid benzyl ester]	76.4
Cc1c(N)cccc1-c1cccc(NC(=O)[C@@H]2CCCN2C(=O)OCc2ccccc2)c1 [Compound 6090, 2-(3′-Amino-2′-methyl-biphenyl-3-ylcarbamoyl)-pyrrolidine-1-carboxylic acid benzyl ester]	59.6
Cc1nc2cc(-c3cccc(NC(=O)[C@@H]4CCCN4C(=O)OCc4ccccc4)c3)ccc2s1 [Compound 6091, 2-[3-(2-Methyl-benzothiazol-5-yl)-phenylcarbamoyl]-pyrrolidine-1-carboxylic acid benzyl ester]	97.7
O=C(Nc1cccc(-c2cccc(O)c2)c1)[C@@H]1CCCN1C(=O)OCc1ccccc1 [Compound 6092, 2-(3′-Hydroxy-biphenyl-3-ylcarbamoyl)-pyrrolidine-1-carboxylic acid benzyl ester]	95.3
NC(=O)Nc1cccc(-c2cccc(NC(=O)[C@@H]3CCCN3C(=O)OCc3ccccc3)c2)c1 [Compound 6093, 2-(3′-Ureido-biphenyl-3-ylcarbamoyl)-pyrrolidine-1-carboxylic acid benzyl ester]	98.1
O=C(Nc1cccc(-c2cccc3cc[nH]c23)c1)[C@@H]1CCCN1C(=O)OCc1ccccc1 [Compound 6094, 2-[3-(1H-Indol-7-yl)-phenylcarbamoyl]-pyrrolidine-1-carboxylic acid benzyl ester]	98.8
Nc1cc(-c2cccc(NC(=O)[C@@H]3CCCN3C(=O)OCc3ccccc3)c2)cc(C(F)(F)F)c1 [Compound 6095, 2-(3′-Amino-5′-trifluoromethyl-biphenyl-3-ylcarbamoyl)-pyrrolidine-1-carboxylic acid benzyl ester]	61.6
CN(C)c1cccc(-c2cccc(NC(=O)[C@@H]3CCCN3C(=O)OCc3ccccc3)c2)c1 [Compound 6096, 2-(3′-Dimethylamino-biphenyl-3-ylcarbamoyl)-pyrrolidine-1-carboxylic acid benzyl ester]	53.3
